One may read the Emax as the maximal effect, on the per cent scale that the assay sets. In general, EC50 refers to the concentration that produces a half-maximal response.

The values below come from patent publication US20250002507A1, “7,8-DIHYDRO-5H-1,6-NAPHTHYRIDINE DERIVATIVES AS POSITIVE ALLOSTERIC MODULATORS OF THE MUSCARINIC ACETYLCHOLINE RECEPTOR M4 FOR TREATING NEUROLOGICAL AND PSYCHIATRIC DISORDERS” (Vanderbilt University, priority 2021, published 2025).

In this assay the target is T1, Human M4 (Homo sapiens, UniProt P08173).
T1 construct: expressed in transfected cells
T1 sequence (P08173 1-479): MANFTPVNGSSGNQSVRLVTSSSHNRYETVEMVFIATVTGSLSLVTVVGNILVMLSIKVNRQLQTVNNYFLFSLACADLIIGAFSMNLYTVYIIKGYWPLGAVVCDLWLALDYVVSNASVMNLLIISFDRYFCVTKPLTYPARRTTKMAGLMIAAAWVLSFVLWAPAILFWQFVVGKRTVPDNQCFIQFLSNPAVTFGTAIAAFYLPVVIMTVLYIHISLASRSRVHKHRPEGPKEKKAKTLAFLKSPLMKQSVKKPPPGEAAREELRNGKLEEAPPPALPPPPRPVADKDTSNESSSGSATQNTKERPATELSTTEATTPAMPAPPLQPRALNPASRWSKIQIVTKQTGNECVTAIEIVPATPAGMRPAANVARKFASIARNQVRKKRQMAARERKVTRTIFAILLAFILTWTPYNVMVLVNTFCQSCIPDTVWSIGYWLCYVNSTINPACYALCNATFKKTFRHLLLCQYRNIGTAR
Nature of the assay: mAChR M4 cell-based functional assay (calcium flux, potentiation of EC20 acetylcholine response), hM4-Gqi5 CHO-K1 cells. Particulars: Table 3; for Emax at 30 µM: CHO-K1, Human M4, % ACh maximum at 30 μM, read-out: Emax (% ACh maximum at 30 μM); for EC50: potentiation of EC20 acetylcholine response, calcium flux, CHO-K1 cells, read-out: Human M4 EC50. The gist of the method: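 CHO-K1 cells stably expressing human M4 with chimeric Gqi5, loaded with Fluo-4 AM 50 min at 37 °C; calcium flux read by FDSS. 11-point 1:3 compound curves added, then EC20 acetylcholine at 144 s; potentiation of the EC20 response fitted by four-parameter logistic to give EC50 and Emax.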
On the technique in general: A change in cytosolic calcium serves as a functional read-out for many receptors and channels.

Take `Cc1c(N2CCc3ncc(-c4cc(F)cnc4Cl)cc3C2)nn2cnnc2c1C` [Compound 181, 3-(2-chloro-5-fluoropyridin-3-yl)-6-(7,8-dimethyl-[1,2,4]triazolo[4,3-b]pyridazin-6-yl)-5,6,7,8-tetrahydro-1,6-naphthyridine]: the Emax at 30 µM is 95% and the concentration for a half-maximal effect (EC50) was 539 nM.

Turning to `Cc1c(N2CCc3ncc(-c4cccnc4OC(C)C)cc3C2)nn2cnnc2c1C` [Compound 182, 6-(7,8-dimethyl-[1,2,4]triazolo[4,3-b]pyridazin-6-yl)-3-(2-isopropoxypyridin-3-yl)-5,6,7,8-tetrahydro-1,6-naphthyridine], the maximum response (Emax) at 30 µM is 42% and the EC50 was determined as 1100 nM.

For `Cc1c(N2CCc3ncc(-c4cccnc4F)cc3C2)nn2cnnc2c1C` [Compound 183, 6-(7,8-dimethyl-[1,2,4]triazolo[4,3-b]pyridazin-6-yl)-3-(2-fluoropyridin-3-yl)-5,6,7,8-tetrahydro-1,6-naphthyridine], the maximal effect (Emax) at 30 µM turned out to be 93% and the EC50 turned out to be 695 nM.

As for `CC(=O)c1cnc2c(c1)CN(c1nn3cnnc3c(C)c1C)CC2` [Compound 184, 1-(6-(7,8-dimethyl-[1,2,4]triazolo[4,3-b]pyridazin-6-yl)-5,6,7,8-tetrahydro-1,6-naphthyridin-3-yl)ethan-1-one], the Emax at 30 µM worked out at 96% and the EC50 stood at 704 nM.

In the case of `Cc1c(N2CCc3ncc(-c4ccc(N5CCCCC5)nc4)cc3C2)nn2cnnc2c1C` [Compound 185, 6-(7,8-dimethyl-[1,2,4]triazolo[4,3-b]pyridazin-6-yl)-3-(6-(piperidin-1-yl)pyridin-3-yl)-5,6,7,8-tetrahydro-1,6-naphthyridine], the maximal effect (Emax) at 30 µM was 86% and the EC50 came out at 333 nM.

`Cc1c(N2CCc3ncc(-c4ccc(N5CCOCC5)nc4)cc3C2)nn2cnnc2c1C` [Compound 186, 4-(5-(6-(7,8-dimethyl-[1,2,4]triazolo[4,3-b]pyridazin-6-yl)-5,6,7,8-tetrahydro-1,6-naphthyridin-3-yl)pyridin-2-yl)morpholine]: the maximal response (Emax) at 30 µM was 100% and the EC50 came out at 142 nM.

In the case of `Cc1c(N2CCc3ncc(-c4ccc(N5CCN(C)CC5)nc4)cc3C2)nn2cnnc2c1C` [Compound 187, 6-(7,8-dimethyl-[1,2,4]triazolo[4,3-b]pyridazin-6-yl)-3-(6-(4-methylpiperazin-1-yl)pyridin-3-yl)-5,6,7,8-tetrahydro-1,6-naphthyridine], the maximal response (Emax) at 30 µM was found to be 104% and the EC50 came out at 63 nM.

For `Cc1cc2nccn2nc1N1CCc2ncc(C(F)(F)F)cc2C1` [Compound 188, 6-(7-methylimidazo[1,2-b]pyridazin-6-yl)-3-(trifluoromethyl)-5,6,7,8-tetrahydro-1,6-naphthyridine], the Emax at 30 µM is 69% and the EC50 amounted to 523 nM.

Turning to `Cc1c(N2CCc3ncc(C(F)F)cc3C2)nn2cnnc2c1C` [Compound 189, 3-(difluoromethyl)-6-(7,8-dimethyl-[1,2,4]triazolo[4,3-b]pyridazin-6-yl)-5,6,7,8-tetrahydro-1,6-naphthyridine], the Emax at 30 µM amounted to 103% and the concentration giving a half-maximal response (EC50) is 90 nM.

Turning to `Cc1cc2nncn2nc1N1CCc2ncc(Nc3ccnn3C)cc2C1` [Compound 190, N-(1-methyl-1H-pyrazol-5-yl)-6-(7-methyl-[1,2,4]triazolo[4,3-b]pyridazin-6-yl)-5,6,7,8-tetrahydro-1,6-naphthyridin-3-amine], the maximal effect (Emax) at 30 µM is 102% and the 50% effective concentration (EC50) worked out at 234 nM.

On to `Cc1c(N2CCc3ncc(-c4ccc(-n5cccn5)nc4)cc3C2)nn2cnnc2c1C` [Compound 191, 3-(6-(1H-pyrazol-1-yl)pyridin-3-yl)-6-(7,8-dimethyl-[1,2,4]triazolo[4,3-b]pyridazin-6-yl)-5,6,7,8-tetrahydro-1,6-naphthyridine], for which the maximal effect (Emax) at 30 µM was determined as 66% and the concentration giving a half-maximal response (EC50) worked out at 342 nM.

Consider `Cc1c(N2CCc3ncc(-c4ccc(-n5ccnc5)nc4)cc3C2)nn2cnnc2c1C` [Compound 192, 3-(6-(1H-imidazol-1-yl)pyridin-3-yl)-6-(7,8-dimethyl-[1,2,4]triazolo[4,3-b]pyridazin-6-yl)-5,6,7,8-tetrahydro-1,6-naphthyridine], for which the maximum response (Emax) at 30 µM worked out at 72% and the EC50 was 281 nM.

On to `Cc1cc2nncn2nc1N1CCc2ncc(-c3ccns3)cc2C1` [Compound 193, 5-(6-(7-methyl-[1,2,4]triazolo[4,3-b]pyridazin-6-yl)-5,6,7,8-tetrahydro-1,6-naphthyridin-3-yl)isothiazole], for which the Emax at 30 µM was 93% and the EC50 is 94 nM.

As for `Cc1ncc(-c2cnc3c(c2)CN(c2nn4cnnc4cc2C)CC3)s1` [Compound 194, 2-methyl-5-(6-(7-methyl-[1,2,4]triazolo[4,3-b]pyridazin-6-yl)-5,6,7,8-tetrahydro-1,6-naphthyridin-3-yl)thiazole], the maximal effect (Emax) at 30 µM is 88% and the EC50 came out at 292 nM.

With `Cc1nc(C)c(-c2cnc3c(c2)CN(c2nn4cnnc4cc2C)CC3)s1` [Compound 195, 2,4-dimethyl-5-(6-(7-methyl-[1,2,4]triazolo[4,3-b]pyridazin-6-yl)-5,6,7,8-tetrahydro-1,6-naphthyridin-3-yl)thiazole], the Emax at 30 µM is 89% and the EC50 was found to be 200 nM.

In the case of `Cc1cc2nncn2nc1N1CCc2ncc(-c3ccc(C(F)(F)F)nc3)cc2C1` [Compound 196, 6-(7-methyl-[1,2,4]triazolo[4,3-b]pyridazin-6-yl)-3-(6-(trifluoromethyl)pyridin-3-yl)-5,6,7,8-tetrahydro-1,6-naphthyridine], the Emax at 30 µM was 80% and the EC50 was 708 nM.

For `Cc1cc2nncn2nc1N1CCc2ncc(-c3ccc(C4CC4)nc3)cc2C1` [Compound 197, 3-(6-cyclopropylpyridin-3-yl)-6-(7-methyl-[1,2,4]triazolo[4,3-b]pyridazin-6-yl)-5,6,7,8-tetrahydro-1,6-naphthyridine], the Emax at 30 µM amounted to 82% and the concentration giving a half-maximal response (EC50) worked out at 176 nM.

Turning to `Cc1ccc(-c2cnc3c(c2)CN(c2nn4cnnc4cc2C)CC3)cn1` [Compound 198, 6-(7-methyl-[1,2,4]triazolo[4,3-b]pyridazin-6-yl)-3-(6-methylpyridin-3-yl)-5,6,7,8-tetrahydro-1,6-naphthyridine], the maximal response (Emax) at 30 µM worked out at 93% and the concentration for a half-maximal effect (EC50) turned out to be 206 nM.

As for `Cc1cc2nncn2nc1N1CCc2ncc(-c3cccnc3)cc2C1` [Compound 199, 6-(7-methyl-[1,2,4]triazolo[4,3-b]pyridazin-6-yl)-3-(pyridin-3-yl)-5,6,7,8-tetrahydro-1,6-naphthyridine], the Emax at 30 µM is 84% and the EC50 came out at 334 nM.

`Cc1c(N2CCc3ncc(C4CC4)cc3C2)nn2cnnc2c1C` [Compound 200, 3-cyclopropyl-6-(7,8-dimethyl-[1,2,4]triazolo[4,3-b]pyridazin-6-yl)-5,6,7,8-tetrahydro-1,6-naphthyridine]: the maximum response (Emax) at 30 µM came to 93% and the EC50 was 53 nM.

Turning to `Cc1c(N2CCc3ncc(Nc4ccnn4C)cc3C2)nn2c(C(F)(F)F)nnc2c1C` [Compound 201, 6-(7,8-dimethyl-3-(trifluoromethyl)-[1,2,4]triazolo[4,3-b]pyridazin-6-yl)-N-(1-methyl-1H-pyrazol-5-yl)-5,6,7,8-tetrahydro-1,6-naphthyridin-3-amine], the maximum response (Emax) at 30 µM was 94% and the half-maximal effective concentration (EC50) turned out to be 63 nM.

Consider `COc1ccc(-c2cnc3c(c2)CN(c2nn4cnnc4cc2C)CC3)cn1` [Compound 202, 3-(6-methoxypyridin-3-yl)-6-(7-methyl-[1,2,4]triazolo[4,3-b]pyridazin-6-yl)-5,6,7,8-tetrahydro-1,6-naphthyridine], for which the maximal response (Emax) at 30 µM was found to be 95% and the concentration giving a half-maximal response (EC50) was 227 nM.

Consider `Cc1cc2nncn2nc1N1CCc2ncc(Nc3nsc4ncccc34)cc2C1` [Compound 203, N-(6-(7-methyl-[1,2,4]triazolo[4,3-b]pyridazin-6-yl)-5,6,7,8-tetrahydro-1,6-naphthyridin-3-yl)isothiazolo[5,4-b]pyridin-3-amine], for which the maximal effect (Emax) at 30 µM is 35% and the EC50 was determined as 82 nM.

In the case of `Cc1cc2nncn2nc1N1CCc2ncc(Nc3nn(C)c4ccccc34)cc2C1` [Compound 204, N-(1-methyl-1H-indazol-3-yl)-6-(7-methyl-[1,2,4]triazolo[4,3-b]pyridazin-6-yl)-5,6,7,8-tetrahydro-1,6-naphthyridin-3-amine], the maximal effect (Emax) at 30 µM came out at 62% and the EC50 is 3550 nM.

Consider `Cc1cc2nncn2nc1N1CCc2ncc(Nc3csc4ncccc34)cc2C1` [Compound 205, N-(6-(7-methyl-[1,2,4]triazolo[4,3-b]pyridazin-6-yl)-5,6,7,8-tetrahydro-1,6-naphthyridin-3-yl)thieno[2,3-b]pyridin-3-amine], for which the Emax at 30 µM amounted to 65% and the EC50 amounted to 477 nM.

In the case of `Cc1cc2nncn2nc1N1CCc2ncc(N3CCCn4nccc43)cc2C1` [Compound 206, 3-(6,7-dihydropyrazolo[1,5-a]pyrimidin-4(5H)-yl)-6-(7-methyl-[1,2,4]triazolo[4,3-b]pyridazin-6-yl)-5,6,7,8-tetrahydro-1,6-naphthyridine], the Emax at 30 µM is 96% and the EC50 was found to be 53 nM.
